Experimental data: ChEMBL document CHEMBL1125541, “Synthesis and antiviral evaluation of N-carboxamidine-substituted analogues of 1-beta-D-ribofuranosyl-1,2,4-triazole-3-carboxamidine hydrochloride” (J Med Chem, 1992); call rule not given here
≈ marks a conversion by molar mass, not a printed value. Where “and” joins values, the source holds several entries; their conditions need not be identical. Equal values may be shown once.

Legend:
[1] = Compound was tested in vitro for antiviral activity against sandfly fever-Sicilian (SF) virus (Concentration required for the 50%inhibition of virus-induced cell death); inactive; type: functional
[2] = Compound was tested in vitro for antiviral activity against Punta Toro (PT) virus (Concentration required for the 50%inhibition of virus-induced cell death); inactive; type: functional
[3] = Compound was tested in vitro for antiviral activity against sandfly fever-Sicilian (SF) virus (Concentration which was cytotoxic to 50% of uninfected cells); settings: read-out: TC50 (the source's name)
[4] = Compound was tested in vitro for antiviral activity against Punta Toro (PT) virus (Concentration which was cytotoxic to 50% of uninfected cells); settings: read-out: TC50 (the source's name)
[5] = Compound was tested in vitro for antiviral activity against Punta Toro (PT) virus (Concentration required for the 50%inhibition of virus-induced cell death); type: functional
[6] = Compound was tested in vitro for antiviral activity against sandfly fever-Sicilian (SF) virus (Concentration required for the 50%inhibition of virus-induced cell death); type: functional
[7] = Therapeutic index is expressed as ratio of TC50/IC50; settings: for selectivity ratio: read-out: TI50
[8] = Compound was tested in vitro for antiviral activity against Punta Toro (PT) virus (Concentration required for the 50%inhibition of virus-induced cell death); IA - Viral cytopathic effect reduced 25%-49% only.; type: functional
[9] = Compound was tested in vitro for antiviral activity against respiratory syncitial virus (Concentration which was cytotoxic to 50% of uninfected cells); settings: read-out: TC50 (the source's name)
[10] = tested on: dengue virus type 4; experiment: Compound was tested in vitro for antiviral activity against dengue-4- virus (Concentration required for the 50%inhibition of virus-induced cell death); type: functional, organism-based
[11] = tested on: Influenza A virus; experiment: Compound was tested in vitro for antiviral activity against influenza B virus (Concentration required for the 50%inhibition of virus-induced cell death); type: functional, organism-based
[12] = Compound was tested in vitro for antiviral activity against influenza A virus (Concentration which was cytotoxic to 50% of uninfected cells); type: organism-based; settings: read-out: TC50 (the source's name)
[13] = Compound was tested in vitro for antiviral activity against dengue-4-virus (Concentration which was cytotoxic to 50% of uninfected cells); settings: dengue virus type 4, uninfected cells; read-out: TC50 (the source's name)
[14] = tested on: Vaccinia virus; experiment: Compound was tested in vitro for antiviral activity against vaccinia virus (Concentration required for the 50%inhibition of virus-induced cell death); type: functional, organism-based; settings: Orthopoxvirus vaccinia
[15] = Compound was tested in vitro for antiviral activity against vaccinia virus (Concentration which was cytotoxic to 50% of uninfected cells); type: organism-based; settings: orthopoxvirus vaccinia, read-out: TC50 (the source's name)
[16] = tested on: Respiratory syncytial virus; experiment: Compound was tested in vitro for antiviral activity against respiratory syncitial virus (Concentration required for the 50%inhibition of virus-induced cell death); type: functional, organism-based; settings: human respiratory syncytial virus
[17] = tested on: dengue virus type 4; experiment: Compound was tested in vitro for antiviral activity against dengue-4-virus (Concentration required for the 50%inhibition of virus-induced cell death); type: functional, organism-based
[18] = Compound was tested in vitro for antiviral activity against dengue-4- virus (Concentration which was cytotoxic to 50% of uninfected cells); settings: read-out: TC50 (the source's name)
[19] = tested on: Human respirovirus 3; experiment: Compound was tested in vitro for antiviral activity against parainfluenza type 3 virus (Concentration required for the 50%inhibition of virus-induced cell death); type: functional, organism-based
[20] = Compound was tested in vitro for antiviral activity against parainfluenza type 3 virus (Concentration which was cytotoxic to 50% of uninfected cells); settings: human respirovirus 3, uninfected cells; read-out: TC50 (the source's name)
[21] = tested on: Influenza A virus; experiment: Compound was tested in vitro for antiviral activity against influenza A virus (Concentration required for the 50%inhibition of virus-induced cell death); type: functional, organism-based

| Compound | IC50 [1] | IC50 [2] | CC50 [3] | CC50 [4] | IC50 [5] | IC50 [6] | selectivity ratio [7] | other results |
| --- | --- | --- | --- | --- | --- | --- | --- | --- |
| Cl.OC[C@H]1O[C@@H](n2cnc(C3=NCCCN3)n2)[C@H](O)[C@@H]1O | Not Active | Not Active | > 3200 µg/mL | > 3200 µg/mL |  |  |  |  |
| NC(=O)CC(/N=C(/N)c1ncn(C2O[C@H](CO)[C@@H](O)[C@H]2O)n1)C(=O)O (some centres not stated) |  |  | > 3200 µg/mL | > 3200 µg/mL | 1600 µg/mL (≈ 4470 µM) | 484 µg/mL (≈ 1350 µM) |  |  |
| Cl.OC[C@H]1O[C@@H](n2cnc(C3=NCC(O)CN3)n2)[C@H](O)[C@@H]1O (some centres not stated) | Not Active | Not Active | > 320 µg/mL | > 320 µg/mL |  |  |  |  |
| CCCCCCCC/N=C(/N)c1ncn(C2O[C@H](CO)[C@@H](O)[C@H]2O)n1 (some centres not stated) |  | Not Active | > 1000 µg/mL | > 1000 µg/mL |  | 339 µg/mL (≈ 954 µM) | > 3 |  |
| NC(=O)CCC(/N=C(/N)c1ncn(C2O[C@H](CO)[C@@H](O)[C@H]2O)n1)C(=O)O (some centres not stated) |  |  | > 3200 µg/mL | > 3200 µg/mL | 2690 µg/mL (≈ 7220 µM) | 547 µg/mL (≈ 1470 µM) |  |  |
| N/C(=N/CC(=O)O)c1ncn(C2O[C@H](CO)[C@@H](O)[C@H]2O)n1 (some centres not stated) |  |  | > 3200 µg/mL | > 1000 µg/mL |  | 566 µg/mL (≈ 1880 µM) | > 5.66 | IC50 [8]: Not Active |
| Cl.N=C(N)c1ncn([C@@H]2O[C@H](CO)[C@@H](O)[C@H]2O)n1 [TARIBAVIRIN HYDROCHLORIDE] |  |  | 800 µg/mL | 752 µg/mL | 83 µg/mL | 36 µg/mL |  | CC50 ([9]; human respiratory syncytial virus): > 1000 µg/mL; IC50 [10]: 100 µg/mL; IC50 [11]: 48 µg/mL; CC50 [12]: > 1000 µg/mL; CC50 [13]: 250 µg/mL; IC50 [14]: 59 µg/mL; CC50 [15]: > 320 µg/mL; IC50 [16]: 16 µg/mL |
| COC(=N)c1ncn([C@@H]2O[C@H](CO)[C@@H](O)[C@H]2O)n1 |  |  | 840 µg/mL (≈ 3250 µM) | 744 µg/mL (≈ 2880 µM) | 201 µg/mL (≈ 778 µM) | 98 µg/mL (≈ 380 µM) |  | CC50 [13]: > 250 µg/mL; IC50 [17]: 76 µg/mL (≈ 294 µM); TI50 [7]: 8.6 and 3.7 and > 3.3 |
| C/N=C(\NC)c1ncn([C@@H]2O[C@H](CO)[C@@H](O)[C@H]2O)n1.Cl |  |  | > 1000 µg/mL | 2900 µg/mL | 181 µg/mL | 94 µg/mL |  | CC50 [13]: > 250 µg/mL; IC50 [17]: 162 µg/mL; IC50 [14]: 184 µg/mL; CC50 [15]: > 1000 µg/mL |
| N#C/N=C(/N)c1ncn(C2O[C@H](CO)[C@@H](O)[C@H]2O)n1 (some centres not stated) | Not Active | Not Active | > 1000 µg/mL | > 1000 µg/mL |  |  | > 1 | IC50 [10]: 250 µg/mL (≈ 932 µM); CC50 [18]: > 250 µg/mL |
| CCCC/N=C(/N)c1ncn(C2O[C@H](CO)[C@@H](O)[C@H]2O)n1 (some centres not stated) |  |  | > 1000 µg/mL | 660 µg/mL (≈ 2200 µM) | 41 µg/mL (≈ 137 µM) | 73 µg/mL (≈ 244 µM) | 13.7 | TI50 [7]: 16 |
| CNC(=O)c1ncn([C@@H]2O[C@H](CO)[C@@H](O)[C@H]2O)n1 | Not Active | Not Active | > 320 µg/mL | > 320 µg/mL |  |  |  |  |
| C/N=C(/N)c1ncn([C@@H]2O[C@H](CO)[C@@H](O)[C@H]2O)n1.Cl |  |  | > 1000 µg/mL | > 1000 µg/mL | 250 µg/mL | 104 µg/mL |  | CC50 ([9]; respiratory syncytial virus): > 1000 µg/mL; CC50 [12]: > 1000 µg/mL; IC50 [19]: 125 µg/mL; CC50 [20]: > 1000 µg/mL; IC50 [14]: 198 µg/mL; CC50 [15]: > 320 µg/mL; IC50 [16]: 24 µg/mL; IC50 [21]: 63 µg/mL |
